From paper doi:10.1101/2021.10.07.463234v2 (biorxiv, 2021)
Counter-ions that a name gives are not always drawn.

Target: SARS-CoV-2 Mac1 (Severe acute respiratory syndrome coronavirus 2, UniProt P0DTD1)
Assay: biochemical
Conditions: for inhibition at 100 µM: read-out: %inhibition; for %inhibition: 100 µM, inhibitor

Molecule `NC(=O)N/N=C/c1ccc([N+](=O)[O-])o1` [Nitrofural] has an inhibition at 100 µM of 0%.

With `CNCC[C@H](Oc1cccc2ccccc12)c1cccs1` [Duloxetine] the “%inhibition” value was 8.877%.

For `O=c1[nH]c2ccccc2n1C1CCN(CCCC(c2ccc(F)cc2)c2ccc(F)cc2)CC1` [Pimozide], the inhibition at 100 µM was 0%.

`COc1ncc(-c2ccc3nccc(-c4ccnnc4)c3c2)cc1NS(=O)(=O)c1ccc(F)cc1F` [Omipalisib (GSK2126458, GSK458)] showed an inhibition at 100 µM of 7.47%.

`Nc1c2ccccc2nc2ccccc12` [9-Aminoacridine] showed an inhibition at 100 µM of 0.915%.

`C[C@]12C=CC(=O)C=C1CC[C@@H]1[C@@H]2[C@@H](O)C[C@@]2(C)[C@H]1CC[C@]2(O)C(=O)CO` [Prednisolone] showed an inhibition at 100 µM of 31%.

`CN[C@H]1C(=O)N[C@@H]2Cc3ccc(cc3)Oc3cc4cc(c3O[C@@H]3O[C@H](C(=O)O)[C@@H](O)[C@H](O)[C@H]3NC(=O)CCCCCCCCC(C)C)Oc3ccc(cc3Cl)[C@@H](O)[C@@H]3NC(=O)[C@H](NC(=O)[C@@H]4NC(=O)[C@@H](NC2=O)c2cc(cc(O)c2Cl)Oc2cc1ccc2O)c1ccc(O)c(c1)-c1c(O[C@H]2O[C@H](CO)[C@@H](O)[C@H](O)[C@@H]2O)cc(O)cc1[C@@H](C(=O)NCCCN(C)C)NC3=O` [Dalbavancin] showed an inhibition at 100 µM of 23.4%.

With `O=c1[nH]c2ccccc2n1CCN1CCN(c2cccc(C(F)(F)F)c2)CC1` [Flibanserin] the inhibition at 100 µM was 0%.

Molecule `NS(=O)(=O)c1cc2c(cc1Cl)NC(C(Cl)Cl)NS2(=O)=O` (stereo not shown) [Trichlormethiazide] has an inhibition at 100 µM of 0%.

With `Cc1c(NC(=O)c2cccnc2)c(=O)n(-c2ccccc2)n1C` [Nifenazone] the inhibition at 100 µM was 3.55%.

Work on `O=C(c1ccccc1)c1ccc2n1CCC2C(=O)O` (stereo not shown) [Ketorolac] yielded an inhibition at 100 µM of 11.8%.

With `CNC(=O)c1cc(Oc2ccc(NC(=O)Nc3ccc(Cl)c(C(F)(F)F)c3)cc2)ccn1` [Sorafenib Tosylate] the “%inhibition” value was 10.76%.

Work on `N#C[C@@H]1C[C@H]2C[C@H]2N1C(=O)[C@@H](N)[C@@]12C[C@@H]3C[C@@H](C[C@@](O)(C3)C1)C2` [Saxagliptin] yielded an inhibition at 100 µM of 12.8%.

`CCCCOC(=O)c1ccc(O)cc1` [Butylparaben] gave an inhibition at 100 µM of 0%.

In the case of `O=C(N/N=C/c1ccc([N+](=O)[O-])o1)c1ccc(O)cc1` [Nifuroxazide], the inhibition at 100 µM is reported as 0.953%.

Molecule `O=C1CC[C@@]2(O)[C@H]3Cc4ccc(O)c5c4[C@@]2(CCN3CC2CC2)[C@H]1O5` [Naltrexone HCl] has an inhibition at 100 µM of 0%.

`CC(C)[C@H]1C(=O)N[C@@H](CCCN=C(N)N)C(=O)NCC(=O)N[C@@H](CC(=O)O)C(=O)N[C@H](Cc2ccccc2)C(=O)N1C` [Cilengitide?trifluoroacetate] showed an inhibition at 100 µM of 10.8%.

Work on `CCN(C(=O)c1c(O)c2c(Cl)cccc2n(C)c1=O)c1ccccc1` [Laquinimod] yielded an inhibition at 100 µM of 22.6%.

With `CC(C(=O)O)c1ccc2c(c1)CC(=O)c1ccccc1S2` (stereo not shown) [Zaltoprofen] the inhibition at 100 µM was 16.4%.

With `CCc1ccc(CCOc2ccc(CC3SC(=O)NC3=O)cc2)nc1` (stereo not shown) [Pioglitazone] the inhibition at 100 µM was 0%.

`CC1=C(C(=O)O)N2C(=O)[C@@H](NC(=O)[C@H](N)C3=CCC=CC3)[C@H]2SC1` [Cephradine monohydrate] was tested, and the “%inhibition” value was 0%.

Molecule `COc1ccc([C@H]2CNC(=O)C2)cc1OC1CCCC1` [S- (+)-Rolipram] has an inhibition at 100 µM of 0%.

In the case of `COc1cc2nccc(Oc3ccc(NC(=O)Nc4cc(C)on4)c(Cl)c3)c2cc1OC` [Tivozanib (AV-951)], the inhibition at 100 µM is reported as 9.18%.

With `C#C[C@]1(O)CC[C@H]2[C@@H]3CCc4cc(OC)ccc4[C@H]3CC[C@@]21C` [Mestranol] the inhibition at 100 µM was 0%.

`CNCCCN1c2ccccc2CCc2ccccc21` [Desipramine Hydrochloride] gave an inhibition at 100 µM of 15.3%.

With `Oc1ccc(Cl)cc1Cc1cc(Cl)ccc1O` [Dichlorophene] the inhibition at 100 µM was 15%.

In the case of `CC(=O)c1c(C)c2cnc(Nc3ccc(N4CCNCC4)cn3)nc2n(C2CCCC2)c1=O` [Palbociclib (PD-0332991) HCl], the inhibition at 100 µM is reported as 0%.

Work on `CC1(C)S[C@@H]2[C@H](NC(=O)[C@H](NC(=O)N3CCN(S(C)(=O)=O)C3=O)c3ccccc3)C(=O)N2[C@H]1C(=O)O` [Mezlocillin Sodium] yielded an inhibition at 100 µM of 6.75%.
